ChEMBL document CHEMBL6127053, “Discovery of orally bioavailable phosphonate prodrugs of potent ENPP1 inhibitors for cancer treatment” (Eur J Med Chem, 2024)
In brackets after ≈: the same amount, converted by molar mass.

Legend:
[1] = biological target: Cytochrome P450 3A4 (Homo sapiens, UniProt P08684); assay: Inhibition of CYP3A4 (unknown origin); type: ADME
[2] = biological target: T1, Cytochrome P450 1A2 (Homo sapiens, UniProt P05177); assay: Inhibition of CYP1A2 (unknown origin); type: ADME
T1 sequence (P05177 whole entry): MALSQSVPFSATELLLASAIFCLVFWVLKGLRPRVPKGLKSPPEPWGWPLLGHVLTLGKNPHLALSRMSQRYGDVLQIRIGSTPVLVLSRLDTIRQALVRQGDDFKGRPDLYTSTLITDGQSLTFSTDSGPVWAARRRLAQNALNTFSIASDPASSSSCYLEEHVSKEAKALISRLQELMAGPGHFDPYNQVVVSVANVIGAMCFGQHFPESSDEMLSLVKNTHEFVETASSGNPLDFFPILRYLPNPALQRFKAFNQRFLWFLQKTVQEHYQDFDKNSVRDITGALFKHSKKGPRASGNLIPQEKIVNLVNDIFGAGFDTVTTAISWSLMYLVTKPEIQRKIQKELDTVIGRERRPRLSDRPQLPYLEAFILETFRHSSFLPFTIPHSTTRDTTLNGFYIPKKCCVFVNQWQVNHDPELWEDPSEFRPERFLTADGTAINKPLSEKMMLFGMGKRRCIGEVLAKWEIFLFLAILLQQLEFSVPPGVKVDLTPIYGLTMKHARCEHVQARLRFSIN

[3] = biological target: Cytochrome P450 2C9 (Homo sapiens, UniProt P11712); assay: Inhibition of CYP2C9 (unknown origin); type: ADME
[4] = biological target: Cytochrome P450 2C19 (Homo sapiens, UniProt P33261); assay: Inhibition of CYP2C19 (unknown origin); type: ADME
[5] = biological target: Cytochrome P450 2D6 (Homo sapiens, UniProt P10635); assay: Inhibition of CYP2D6 (unknown origin); type: ADME
[6] = biological target: T2, Ectonucleotide pyrophosphatase/phosphodiesterase family member 1 (Mus musculus, UniProt P06802)
T2 sequence (P06802 whole entry): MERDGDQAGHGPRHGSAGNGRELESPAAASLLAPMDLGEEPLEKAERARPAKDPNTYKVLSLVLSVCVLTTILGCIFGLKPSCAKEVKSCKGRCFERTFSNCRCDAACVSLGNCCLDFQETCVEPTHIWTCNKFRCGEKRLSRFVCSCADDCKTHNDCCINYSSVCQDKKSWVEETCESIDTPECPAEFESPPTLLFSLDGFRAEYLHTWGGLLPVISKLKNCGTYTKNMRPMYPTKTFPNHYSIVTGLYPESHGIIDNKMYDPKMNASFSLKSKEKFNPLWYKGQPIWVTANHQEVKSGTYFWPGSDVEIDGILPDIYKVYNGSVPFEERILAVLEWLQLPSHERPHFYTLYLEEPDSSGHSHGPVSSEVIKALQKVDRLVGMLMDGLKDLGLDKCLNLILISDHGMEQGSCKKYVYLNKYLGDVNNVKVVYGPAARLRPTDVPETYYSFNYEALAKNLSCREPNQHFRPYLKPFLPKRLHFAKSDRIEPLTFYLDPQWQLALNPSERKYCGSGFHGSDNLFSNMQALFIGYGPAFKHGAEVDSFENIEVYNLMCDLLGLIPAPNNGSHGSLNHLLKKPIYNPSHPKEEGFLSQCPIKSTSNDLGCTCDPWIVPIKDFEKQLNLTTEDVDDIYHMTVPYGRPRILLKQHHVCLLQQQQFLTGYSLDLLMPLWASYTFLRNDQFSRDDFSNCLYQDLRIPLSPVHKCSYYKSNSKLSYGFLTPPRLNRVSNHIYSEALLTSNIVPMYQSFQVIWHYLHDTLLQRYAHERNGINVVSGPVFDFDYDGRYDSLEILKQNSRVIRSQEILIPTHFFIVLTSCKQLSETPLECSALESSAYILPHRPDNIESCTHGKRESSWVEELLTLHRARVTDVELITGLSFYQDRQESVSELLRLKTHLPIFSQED

[7] = biological target: T3, Ectonucleotide pyrophosphatase/phosphodiesterase family member 1 (Homo sapiens, UniProt P22413); assay: Inhibition of ENPP1 (unknown origin) at pH 7.5
T3 sequence (P22413 whole entry): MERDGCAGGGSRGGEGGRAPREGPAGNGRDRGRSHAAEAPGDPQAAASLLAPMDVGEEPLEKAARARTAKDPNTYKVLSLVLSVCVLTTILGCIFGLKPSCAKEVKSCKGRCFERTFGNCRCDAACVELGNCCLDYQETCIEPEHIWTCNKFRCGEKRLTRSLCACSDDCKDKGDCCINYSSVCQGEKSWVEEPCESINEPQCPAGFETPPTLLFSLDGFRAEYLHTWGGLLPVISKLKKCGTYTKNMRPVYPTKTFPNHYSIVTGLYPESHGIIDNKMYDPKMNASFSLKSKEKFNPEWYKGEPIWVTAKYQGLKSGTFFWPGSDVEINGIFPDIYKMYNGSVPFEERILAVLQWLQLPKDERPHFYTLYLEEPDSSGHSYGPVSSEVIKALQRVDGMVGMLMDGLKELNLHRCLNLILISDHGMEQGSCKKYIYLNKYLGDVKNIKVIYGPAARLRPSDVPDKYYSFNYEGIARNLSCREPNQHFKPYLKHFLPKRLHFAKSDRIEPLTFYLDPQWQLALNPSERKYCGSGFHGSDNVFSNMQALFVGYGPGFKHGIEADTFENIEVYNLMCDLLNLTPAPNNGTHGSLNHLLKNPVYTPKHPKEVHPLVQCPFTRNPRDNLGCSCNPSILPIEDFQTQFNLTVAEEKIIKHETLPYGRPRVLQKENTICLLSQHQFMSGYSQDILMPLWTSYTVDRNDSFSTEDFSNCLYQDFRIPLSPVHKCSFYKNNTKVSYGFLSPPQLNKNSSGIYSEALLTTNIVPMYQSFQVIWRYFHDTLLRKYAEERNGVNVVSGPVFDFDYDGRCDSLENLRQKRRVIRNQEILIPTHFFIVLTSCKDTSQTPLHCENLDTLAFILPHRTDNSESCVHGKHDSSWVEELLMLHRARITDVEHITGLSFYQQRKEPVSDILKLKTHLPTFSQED

[8] = biological target: T3, Ectonucleotide pyrophosphatase/phosphodiesterase family member 1; assay: Inhibition of ECD-His-tagged human recombinant ENPP1 using 2',3'-cGAMP as substrate preincubated with enzyme for 15 mins followed by substrate addition and incubated in R1 reaction buffer for 1 hr and treated in R2 reaction buffer for 1 hr measured at pH 7.5 by luminescence based analysis
[9] = Prodrug conversion in mouse assessed as oral bioavailability of (4-((7-Methoxy-1,8-naphthyridin-4yl)oxy)benzyl)phosphonic acid metabolite at 5 mg/kg measured for 24 hrs by LC-MS/MS analysis; type: ADME, organism-based; details: in vivo
[10] = Prodrug conversion in dog assessed as oral bioavailability of (4-((7-Methoxy-1,8-naphthyridin-4yl)oxy)benzyl)phosphonic acid metabolite at 2 mg/kg measured for 24 hrs by LC-MS/MS analysis; type: ADME, organism-based, Canis lupus familiaris; details: in vivo
[11] = Prodrug conversion in mouse assessed as AUC(0 to t) of (4-((7-Methoxy-1,8-naphthyridin-4yl)oxy)benzyl)phosphonic acid metabolite at 5 mg/kg, po measured for 24 hrs by LC-MS/MS analysis; type: ADME, organism-based; details: in vivo
[12] = test system: Panc02; assay: Synergistic antitumor activity against mouse Panc02 cells implanted in C57BL/6 mouse assessed as inhibition of tumor growth at 200 mg/kg, po bid for 35 days and irradiated with 5Gy radiation on days 1,8,15,22,29 and measured on day 35 (reference value: 26%); type: functional; details: Panc02, light or radiation study, 840 h, time 35 day, read-out: TGI
[13] = physchem; details: aqueous, pH 7.4
Description: Aqueous solubility of the compound at pH 7.4

[14] = Prodrug conversion in C57BL/6 mouse implanted with mouse Panc02 cells assessed as time during which unbound plasma concentration of (4-((7-Methoxy-1,8-naphthyridin-4yl)oxy)benzyl)phosphonic acid metabolite exceeds IC90 for inhibition of ENPP1 in mouse EL4 cells at 200 mg/kg, po bid for 35 days; type: ADME, organism-based; details: in vivo, 840 h, time 35 day
[15] = test system: Panc02; assay: Antitumor activity against mouse Panc02 cells implanted in C57BL/6 mouse assessed as inhibition of tumor growth at 200 mg/kg, po bid for 35 days and measured on day 35; type: functional; details: Panc02, 840 h, time 35 day, read-out: TGI
[16] = biological target: Voltage-gated inwardly rectifying potassium channel KCNH2 (Homo sapiens, UniProt Q12809); assay: Inhibition of hERG; type: toxicity
[17] = test system: Panc02; assay: Synergistic antitumor activity against mouse Panc02 cells implanted in C57BL/6 mouse assessed as inhibition of tumor growth by measuring combination ratio at 200 mg/kg, po bid for 35 days and irradiated with 5Gy radiation on days 1,8,15,22,29 and measured on day 35; type: functional; details: time 35 day
[18] = Toxicity in C57BL/6 mouse implanted with mouse Panc02 cells assessed as effect on body weight at 200 mg/kg, po bid for 35 days; type: organism-based; details: in vivo, 840 h, time 35 day
[19] = Prodrug conversion in rat assessed as AUC (0 to t) of (4-((7-Methoxy-1,8-naphthyridin-4yl)oxy)benzyl)phosphonic acid metabolite at 5 mg/kg, po measured for 24 hrs by LC-MS/MS analysis; type: ADME, organism-based; details: in vivo
[20] = Prodrug conversion in rat assessed as oral bioavailability of (4-((7-Methoxy-1,8-naphthyridin-4yl)oxy)benzyl)phosphonic acid metabolite at 5 mg/kg measured for 24 hrs by LC-MS/MS analysis; type: ADME, organism-based; details: in vivo
[21] = Prodrug conversion in dog assessed as half-life of (4-((7-Methoxy-1,8-naphthyridin-4yl)oxy)benzyl)phosphonic acid metabolite at 2 mg/kg, po measured for 24 hrs by LC-MS/MS analysis; type: ADME, organism-based, Canis lupus familiaris; details: in vivo
[22] = Prodrug conversion in mouse assessed as half-life of (4-((7-Methoxy-1,8-naphthyridin-4yl)oxy)benzyl)phosphonic acid metabolite at 5 mg/kg, po measured for 24 hrs by LC-MS/MS analysis; type: ADME, organism-based; details: in vivo
[23] = Prodrug conversion in dog assessed as AUC(0 to t) of (4-((7-Methoxy-1,8-naphthyridin-4yl)oxy)benzyl)phosphonic acid metabolite at 2 mg/kg, po measured for 24 hrs by LC-MS/MS analysis; type: ADME, organism-based, Canis lupus familiaris; details: in vivo
[24] = Prodrug conversion in rat assessed as half-life of (4-((7-Methoxy-1,8-naphthyridin-4yl)oxy)benzyl)phosphonic acid metabolite at 5 mg/kg, po measured for 24 hrs by LC-MS/MS analysis; type: ADME, organism-based; details: in vivo
[25] = biological target: T3, Ectonucleotide pyrophosphatase/phosphodiesterase family member 1; assay: Inhibition of ENPP1 (unknown origin) at pH 8.8
[26] = biological target: T3, Ectonucleotide pyrophosphatase/phosphodiesterase family member 1; assay: Inhibition of human recombinant ENPP1 at pH 8

Cytochrome P450 2D6, sequence (P10635 whole entry): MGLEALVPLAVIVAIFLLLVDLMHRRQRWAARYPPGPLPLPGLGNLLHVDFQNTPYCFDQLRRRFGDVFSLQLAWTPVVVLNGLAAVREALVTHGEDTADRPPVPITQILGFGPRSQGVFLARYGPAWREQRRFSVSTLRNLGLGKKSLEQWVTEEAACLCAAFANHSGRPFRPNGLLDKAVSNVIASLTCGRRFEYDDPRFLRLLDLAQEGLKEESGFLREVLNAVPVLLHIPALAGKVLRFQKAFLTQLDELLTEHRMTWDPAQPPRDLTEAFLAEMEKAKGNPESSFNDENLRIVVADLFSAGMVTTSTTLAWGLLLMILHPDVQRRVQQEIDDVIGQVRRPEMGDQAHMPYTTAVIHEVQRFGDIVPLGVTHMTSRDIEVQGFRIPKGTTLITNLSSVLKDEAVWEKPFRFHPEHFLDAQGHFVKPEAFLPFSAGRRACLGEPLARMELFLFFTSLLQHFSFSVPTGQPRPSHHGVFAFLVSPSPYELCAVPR
Cytochrome P450 2C19, sequence (P33261 whole entry): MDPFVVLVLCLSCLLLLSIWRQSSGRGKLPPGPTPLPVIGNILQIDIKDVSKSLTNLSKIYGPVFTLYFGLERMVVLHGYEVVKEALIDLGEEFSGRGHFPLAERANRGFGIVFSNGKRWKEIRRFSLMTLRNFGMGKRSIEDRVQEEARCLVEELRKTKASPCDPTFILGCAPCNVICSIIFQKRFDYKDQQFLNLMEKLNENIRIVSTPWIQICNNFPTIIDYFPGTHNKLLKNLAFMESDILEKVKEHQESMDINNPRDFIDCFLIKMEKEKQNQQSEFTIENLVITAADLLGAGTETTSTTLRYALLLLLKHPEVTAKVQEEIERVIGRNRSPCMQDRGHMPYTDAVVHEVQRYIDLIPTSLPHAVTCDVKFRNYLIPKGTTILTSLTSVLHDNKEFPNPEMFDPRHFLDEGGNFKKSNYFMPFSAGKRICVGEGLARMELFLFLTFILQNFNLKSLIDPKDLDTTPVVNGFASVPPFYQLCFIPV
Cytochrome P450 3A4, sequence (P08684 whole entry): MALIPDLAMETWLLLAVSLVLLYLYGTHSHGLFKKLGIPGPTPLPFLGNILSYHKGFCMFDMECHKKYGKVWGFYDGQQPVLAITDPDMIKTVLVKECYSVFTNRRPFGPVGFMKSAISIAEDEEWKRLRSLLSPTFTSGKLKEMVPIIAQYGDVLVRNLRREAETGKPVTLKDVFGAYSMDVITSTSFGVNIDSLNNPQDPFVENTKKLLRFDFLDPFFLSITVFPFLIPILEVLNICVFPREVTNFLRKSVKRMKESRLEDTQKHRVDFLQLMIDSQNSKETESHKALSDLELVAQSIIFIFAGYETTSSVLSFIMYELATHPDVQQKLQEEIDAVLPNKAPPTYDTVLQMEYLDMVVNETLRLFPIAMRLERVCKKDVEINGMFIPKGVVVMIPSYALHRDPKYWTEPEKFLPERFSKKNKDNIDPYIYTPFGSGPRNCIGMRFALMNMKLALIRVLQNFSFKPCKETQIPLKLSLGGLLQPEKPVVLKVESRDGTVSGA
Cytochrome P450 2C9, sequence (P11712 whole entry): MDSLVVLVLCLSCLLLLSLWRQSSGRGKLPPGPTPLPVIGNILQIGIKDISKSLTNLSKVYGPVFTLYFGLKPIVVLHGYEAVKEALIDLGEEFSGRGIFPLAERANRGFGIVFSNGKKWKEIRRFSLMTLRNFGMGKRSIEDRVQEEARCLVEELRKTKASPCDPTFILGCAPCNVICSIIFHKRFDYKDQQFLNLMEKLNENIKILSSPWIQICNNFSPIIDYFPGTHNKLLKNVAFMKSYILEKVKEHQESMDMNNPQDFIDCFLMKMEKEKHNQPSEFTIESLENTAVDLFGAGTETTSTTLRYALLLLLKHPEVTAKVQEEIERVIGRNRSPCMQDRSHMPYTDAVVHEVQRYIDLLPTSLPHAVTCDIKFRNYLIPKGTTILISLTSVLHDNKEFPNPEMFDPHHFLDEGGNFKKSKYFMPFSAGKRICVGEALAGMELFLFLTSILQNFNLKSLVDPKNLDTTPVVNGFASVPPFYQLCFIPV
Voltage-gated inwardly rectifying potassium channel KCNH2, sequence (Q12809 whole entry): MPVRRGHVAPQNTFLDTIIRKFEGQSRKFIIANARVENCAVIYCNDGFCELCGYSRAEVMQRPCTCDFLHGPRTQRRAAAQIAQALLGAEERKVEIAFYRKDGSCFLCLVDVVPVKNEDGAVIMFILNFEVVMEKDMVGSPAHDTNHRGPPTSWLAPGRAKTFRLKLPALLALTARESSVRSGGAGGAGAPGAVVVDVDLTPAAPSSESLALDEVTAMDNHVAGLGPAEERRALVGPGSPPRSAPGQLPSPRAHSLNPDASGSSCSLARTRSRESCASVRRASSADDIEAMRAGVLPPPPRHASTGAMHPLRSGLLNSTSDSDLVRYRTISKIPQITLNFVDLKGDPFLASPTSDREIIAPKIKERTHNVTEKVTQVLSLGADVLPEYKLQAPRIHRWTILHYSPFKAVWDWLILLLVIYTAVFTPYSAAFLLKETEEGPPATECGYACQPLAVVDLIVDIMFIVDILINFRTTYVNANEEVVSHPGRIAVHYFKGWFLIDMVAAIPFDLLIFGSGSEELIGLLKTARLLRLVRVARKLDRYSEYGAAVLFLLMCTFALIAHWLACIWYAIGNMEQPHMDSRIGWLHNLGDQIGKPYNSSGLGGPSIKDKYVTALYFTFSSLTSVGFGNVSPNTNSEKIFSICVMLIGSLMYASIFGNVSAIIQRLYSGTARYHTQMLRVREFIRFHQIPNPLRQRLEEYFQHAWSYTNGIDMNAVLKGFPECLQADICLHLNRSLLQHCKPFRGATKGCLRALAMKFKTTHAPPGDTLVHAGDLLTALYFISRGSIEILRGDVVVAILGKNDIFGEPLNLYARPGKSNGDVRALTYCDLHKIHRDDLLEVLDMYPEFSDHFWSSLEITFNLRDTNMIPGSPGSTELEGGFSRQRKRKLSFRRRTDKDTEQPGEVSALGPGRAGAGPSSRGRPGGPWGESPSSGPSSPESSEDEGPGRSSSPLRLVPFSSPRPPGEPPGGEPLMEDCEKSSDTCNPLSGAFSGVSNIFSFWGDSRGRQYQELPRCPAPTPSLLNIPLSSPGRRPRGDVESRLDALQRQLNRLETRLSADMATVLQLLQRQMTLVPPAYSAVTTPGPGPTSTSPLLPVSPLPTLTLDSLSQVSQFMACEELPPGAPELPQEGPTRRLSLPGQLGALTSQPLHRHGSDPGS

Compound	IC50 [1] [µM]	IC50 [2] [µM]	IC50 [3] [µM]	IC50 [4] [µM]	IC50 [5] [µM]	other results
COc1ccc2c(Oc3ccc(CC(=O)NO)cc3)ccnc2n1	> 50	> 50	> 50	> 50	> 50	
COc1cccc2c(N3CCC(CCP(=O)(O)O)CC3)ncnc12						IC50 [6]: 2.2 nM; Ki [7]: < 2 nM; IC50 [8]: 6.2 nM
COc1ccc2c(Oc3ccc(C4(C(=O)NO)CCCC4)cc3)ccnc2n1			9.2	8.2		
COc1ccc2c(Oc3ccc(CP(=O)(OCOC(=O)C(C)(C)C)OCOC(=O)C(C)(C)C)cc3)ccnc2n1	> 50	> 50	> 50	> 50	> 50	F [9]: 17%; F [10]: 21.1%; AUCt [11]: 937 ng·h/mL; inhibition in vivo at 200 mg/kg [12]: 51%; solubility [13]: 20.6 µM (≈ 11.8 µg/mL); T>IC90 [14]: 18 h; inhibition in vivo at 200 mg/kg [15]: 11%; IC50 [16]: > 30 µM; Ratio [17]: 1.2; Activity [18]: Non-Toxic; AUCt [19]: 5984 ng·h/mL; F [20]: 39.8%; t1/2 [21]: 1.8 h; t1/2 [22]: 4.2 h; AUCt [23]: 793 ng·h/mL; t1/2 [24]: 4.22 h
COc1ccc2c(Oc3ccc(CP(=O)(O)O)cc3)ccnc2n1	> 50	> 50	> 50	> 50	> 50	IC50 [16]: > 30 µM
NC(=O)c1ccc2c(ncn2Cc2ccc(P(=O)(O)O)cc2)n1						Ki [25]: < 10 nM
COc1ccc2c(Oc3ccc(NS(N)(=O)=O)cc3)ccnc2c1						Ki [26]: < 100 nM
COc1ccc2c(Oc3ccc(CC(=O)NO)cc3)ccnc2c1	10.3	8.1	2.3	4	4.8	
